Experimental data taken from patent US9637592B2, “Vitamin functionalized gel-forming block copolymers for biomedical applications” (International Business Machines Corporation, priority 2013, dated 2017).

Tests used:
P. aeruginosa = experiment: killing efficiency / MBC; type: cell-based, Pseudomonas aeruginosa; conditions: drug alone
Method: Procedure for hydrogels: E. coli, P. aeruginosa, S. aureus and C. albicans were obtained from ATCC and reconstituted from its lyophilized form according to the manufacturer's protocol. Bacterial samples were cultured in Tryptic Soy Broth (TSB) solution at 37° C. under constant shaking of 300 rpm. C. albicans was culture in yeast medium at room temperature under constant shaking of 70 rpm. Prior to treatment, the bacterial sample was first inoculated and cultured to enter into log growth phase. To prepare the antimicrobial hydrogels, cationic polymer was first dissolved in filtered HPLC water in a bio-hood. The resultant solution was then added to solid triblock copolymer for dissolution and left to stand 4 hours at room temperature for the formation of the hydrogels (Example 28 and Example 29). […]
[…] The concentration of bacterial solution was adjusted to give an initial optical density (O.D.) reading of approximately 0.07 at 600 nm wavelength on a microplate reader (TECAN, Switzerland), which corresponds to the concentration of McFarland 1 solution (3×10^8 CFU/mL) The bacterial solution was then diluted and an equal volume of bacterial suspension (3×10^5) was added into each well. […] The plates were incubated for 24 hours at 37° C. and the number of colony-forming units (CFU) was counted. […]

C. albicans = type: cell-based, Candida albicans; conditions: solution, 5.0 mg/L (5 ppm)
Method: A stock solution of cationic polymer VE/PrBr(1:15) (5 mg) in sterile HPLC grade water (10 ml) was prepared having a final concentration of 500 mg/L (500 ppm). A second stock solution of fluconazole (1 mg) in sterile HPLC grade water (100 ml) was prepared having a final concentration of 10 mg/L (10 ppm). […] Formulation (2) was obtained by combining 125 microliters each of the stock solutions of cationic polymer and fluconazole and diluting the resulting solution with 750 microliters of sterile HPLC grade water.

Substance | MBC against P. aeruginosa (P. aeruginosa) | killing efficiency against C. albicans (C. albicans)
Doxycycline [DXY] | 20 to 30 µg/mL | –
Fluconazole | – | 93.53%
